From patent US8778882B2, “Agent for strengthening calcium containing tissue and use thereof” (Hayashibara Co., Ltd., priority 2002, dated 2014)

Columns and labels:
Type in all cases: cell-based
[1] = tested on: mouse pre-osteoblastic cell MC3T3-E1; experiment: Alkaline phosphatase activity in mouse pre-osteoblastic cells; conditions: for activity at 20 µM: Mus musculus
Procedure: To increase number of osteoblastic cells having calcium-deposition activity is important for increasing bone mass. […] The activity is at low level in pre-osteoblastic cells and at high level in osteoblastic cells differentiated form the pre-osteoblastic cells. […] Since final ethanol concentration in the medium is 0.2% (v/v), α-MEM medium containing 0.2% (v/v) ethanol was prepared as a negative control. The cells were inoculated for eight days as changing the medium therewith to fresh medium with or without each sample per three days. Alkaline phosphatase activity was measured using “Alkaline Phospha B-Test Wako” (commercialized by Wako Pure Chemical Industries, Osaka, Japan) according with Kajii et al (Archives of Oral Biology, Vol. 44, pp. 233-241, (1999)). Briefly, to the above described mouse pre-osteoblastic cells washed with 1 ml of 0.25 M sucrose solution three times after removing the medium were added 0.45 ml of 50 mM carbonate salt buffer (pH9.8) containing 1 mM magnesium chloride and 50 mM sucrose and 0.05 ml of 3.4 mM disodium p-nitrophenyl phosphate in due course. The mixture was incubated at 25° C. for five minutes and admixed with 1.5 ml of 0.6N sodium hydroxide as a reaction terminator. Absorbance 405 nm of p-nitrophenol generated by alkaline phosphatase in the resulting mixture was measured, and the obtained values were used as values as alkaline phosphatase activity. […] The experiment was performed by the method according to Experiment 1 except that culture day in the medium containing each sample was three, six or nine, and concentration of each sample was 5, 10 or 20 μM. […] As a negative control, mediums containing ethanol in the above concentration were prepared for calculating relative activity to the activity of each control.

Mouse MC3T3-E1 cells = experiment: Calcium deposition by alizarin red-S staining; parameters: key: +: same strength of red color as a negative control (only medium containing 0.2% (v/v) ethanol); ++: half strength of the positive control; +++: same strength of red color as a positive control (indomethacin); conditions: MC3T3-E1, 20 mM each compound (so in the source), eight days, alizarin red-S red color judgement
From the text: Following Experiment 1 which investigates differentiating pre-osteoblastic cells into osteoblastic cells, some of organic compounds were investigated whether they actually enhance calcium deposition or not. Indomethacin (commercialized by Funakoshi, Co., Ltd., Tokyo, Japan) (positive control), kaempferol (commercialized by Funakoshi, Co., Ltd., Tokyo, Japan), hesperetin (commercialized by Funakoshi, Co., Ltd., Tokyo, Japan), gallic acid (commercialized by Nacalai Tesque, Kyoto, Japan), and coffeic acid (commercialized by Wako Pure Chemical Industries, Osaka, Japan) were selected as organic compounds. Mouse MC3T3-E1 cells were treated with 20 mM each above compound dissolved in 1 ml of α-MEM medium supplemented with 10% (v/v) fetal calf serum and containing 10 mM β-glycerophosphate. Since final ethanol concentration in the medium is 0.2% (v/v), α-MEM medium containing 0.2% (v/v) ethanol was prepared as a negative control. The cells were inoculated for eight days as changing the medium therewith to fresh medium with or without each sample per three days. The cells were applied to measure calcium deposition therein by usual alizarin red-S staining method. Briefly to the cells washed with 1 ml of Dulbecco phosphate buffer saline twice after removing the medium were added 1 ml of 50 (v/v) % ethanol aqueous solution and incubated for 10 minutes. After removing the 50 (v/v) % ethanol aqueous solution, the cells were incubated with 1 ml of distilled water for 10 minutes. After removing the water, the cells were applied with 1 ml of 1% (w/v) alizarin red-S solution, incubated for 10 minutes, and washed with 1 ml of distilled water for three times after removing alizarin red-S solution. Then, the calcium deposition amount was measured in a manner of judging red color on the plate bottom since deposited calcium was stained by the above treatment. The judgement criterion “+” means same strength of red color as a negative control (only medium containing 0.2% (v/v) ethanol), “+++” means same strength of red color as a positive control (indomethacin), and “++” means half strength of the positive control.

[2] = tested on: mouse pre-osteoblastic cell MC3T3-E1; experiment: Calcium deposition amount by Calcium C Test Wako; conditions: Mus musculus, MC3T3-E1; flavonoid comparison, Calcium C Test Wako, relative to 0.2% (v/v) ethanol negative control
From the text: Other flavonoid compounds than kaempferol or hesperetin were investigated where they have the same effect or not. Flavone (commercialized by Kanto Kagaku, Tokyo, Japan), apigenin (commercialized by Funakoshi, Co., Ltd., Tokyo, Japan), flavonol (commercialized by Tokyo Kasei Kogyo, Co., Ltd., Tokyo, Japan), quercetin (commercialized by Kanto Kagaku, Tokyo, Japan), kaempferol (commercialized by Funakoshi, Co., Ltd., Tokyo, Japan), rutin (commercialized by Kanto Kagaku, Tokyo, Japan), flavanone (commercialized by Kanto Kagaku, Tokyo, Japan), naringenin (commercialized by Ardrich Corporation), hesperetin (commercialized by Funakoshi, Co., Ltd., Tokyo, Japan), hesperidin (commercialized by Kanto Kagaku, Tokyo, Japan), chalcone (commercialized by Merk Corporation), fuloretin (commercialized by Sigma Corporation), catechin (commercialized by Sigma Corporation), ipriflavone (commercialized by Daito Corporation, Toyama, Japan), taxifolin (commercialized by Funakoshi, Co., Ltd., Tokyo, Japan), sulfuretin (commercialized by Funakoshi, Co., Ltd.; Tokyo, Japan), or cyanidin (commercialized by Funakoshi, Co., Ltd., Tokyo, Japan) was selected as test samples. Alkaline phosphatase activity was measured by the method of Experiment 1. Calcium deposition was measured by usual method using “Calcium C Test Wako” (commercialized by Wako Pure Chemical Industries, Osaka, Japan), briefly, cultured cells were washed with 1 ml of Dulbecco phosphate buffer saline three times after removing the medium. To the resultant was added 0.5 ml of 2N hydrochloric acid to resolve deposited calcium. To 5 μl of the resultant solution were added 0.5 ml of 0.88M monoethanolamine buffer (pH11) and 0.05 ml of 0.63 mM o-cresolphthalein complexone solution (binding to calcium ion to form chelate complex) containing 69 mM 8-quinolinol and mixed. Calcium amount per one hole of the plate was calculated by measuring absorbance 570 nm of the resultants and standardizing with a standard calcium solution. The judgement of alkaline phosphatase activity or calcium deposition amount of each sample was to calculate the relative activity or the relative calcium deposition amount to the negative control (only medium containing 0.2% (v/v) ethanol) and to compare each other.
The enhancement of calcium deposition between kaempferol and ipripfavone were compared. Test samples and their adding manner were same as Experiment 4. Calcium deposition amount was measured by usual method using “Calcium C Test Wako” (commercialized by Wako Pure Chemical Industries, Osaka, Japan); briefly, cultured cells were washed with 1 ml of Dulbecco phosphate buffer saline three times after removing the medium. To the resultant was added 0.5 ml of 2N hydrochloric acid to resolve deposited calcium. To 5 μl of the resolving solution were added 0.5 ml of 0.88M monoethanolamine buffer (pH11) and 0.05 ml of 0.63 mM o-cresolphthalein complexone solution (binding to calcium ion to form chelate complex) containing 69 mM 8-quinolinol and mixed, Calcium amount per one hole of the plate was calculated by measuring absorbance 570 nm of the resultants and standardizing with a standard calcium solution.
Kaempferol or hesperetin in combination with ipriflavone, or a kind of isoflavones, was investigated whether to enhance calcium deposition or not. Methods for preparing samples and culturing the cells were the same method described in Experiment 1 except culturing the cells for five days, Method for measuring calcium was the same method described in Experiment 3 and 5. Final ethanol concentration of the medium containing each sample was adjusted as same concentration.

[3] = 192 h, MC3T3-E1, 20 mM each compound (so in the source), eight days, relative to 0.2% (v/v) ethanol negative control

Structure (SMILES)	activity at 20 µM [1, 3]	Calcium Deposition Amount (Mouse MC3T3-E1 cells)	Relative Alkaline Phosphatase Activity (%) ([1]; MC3T3-E1, 20 mM each compound (so in the source), eight days, relative to 0.2% (v/v) ethanol negative control)	activity at 20 µM ([1]; MC3T3-E1, flavonoid comparison, method of Experiment 1, relative to 0.2% (v/v) ethanol negative control)	activity at 20 µM [2]
COc1ccc2c(c1)c(CC(=O)O)c(C)n2C(=O)c1ccc(Cl)cc1 [Indomethacin, indomethacin, reference compound]	142%	+++			
O=C(O)/C=C/c1ccc(O)c(O)c1 [Coffeic Acid, coffeic acid]		+	97%		
O=C(O)c1cc(O)c(O)c(O)c1 [Gallic Acid, gallic acid]	79%	+			
O=c1c(O)c(-c2ccc(O)cc2)oc2cc(O)cc(O)c12 [Kaempferol]	162%	+++		162%	305%
